Assays:
acetylated H3K9 (AcH3K9) = test: Global acetylated H3K9 histone mark in Calu-6 cells, Western blot of nuclear protein; assay type: cell-based, human; conditions: Calu-6, increasing doses, 24 and 48 hours
H3K4me2 = test: Global H3K4me2 histone mark in Calu-6 cells, Western blot of nuclear protein; assay type: cell-based, human; conditions: Calu-6, increasing doses (1, 5, 10 μM), 24 hours of treatment

CCNCCCNC/C=C\CNCCCNCC [PG-11047, (2Z)-N1,N4-bis[3-(ethylamino)propyl]-2-butene-1,4-diamine]
increase in global amounts of acetylated H3K9 protein (acetylated H3K9 (AcH3K9)): 2-3 fold | increase in H3K4me2 protein (H3K4me2): 2-4 fold
